From patent publication US7842683B2, “Neurotherapeutic compositions and method” (Revaax Pharmaceuticals, LLC, priority 1999, dated 2010)
Like-named read-outs stand apart in the source and are kept apart here.

Columns and labels:
Male Wistar rats = experiment: Elevated plus-maze (anxiolytic activity); assay type: in vivo, rat
Description: The elevated plus-maze was developed for the detection of anxiolytic and anxiogenic drug effects in the rat (Pellow et al., 1985). The method has been validated behaviorally, physiologically, and pharmacologically. The plus-maze consists of two open arms and two enclosed arms. […] Conversely, anxiogenic compounds like yohimbin or amphetamines reduce open arm entries and time spent in the open arms.
Male Wistar rats weighing 250-300 g were group housed in a normal 12:12 light-dark cycle light on at 0800 hr and provide food and water ad libitum. The plus-maze consisted of two open arms, 50×10 cm, and two enclosed arms 50×10×40 cm with an open roof, arranged such that the two open arms were opposite to each other. The maze was elevated to a height of 50 cm.
Eight animals were tested in the plus-maze 90 min following IP injection with 50 μg/kg Mox and saline vehicle. The order of treatments was counter balanced with at least 48 hrs between injections. At the start of the experiment the animal was place in the center of the plus maze facing the closed arm. Over a five min observation period, animals were scored for the latency to enter the closed arm, time spent in the closed arm and the number of open arm entries following the first occupation of the closed arm (FIG. 7).
Because Mox and CDP have different bioavailability profiles, e.g. brain penetrance, their CNS activity could not be compared by giving systemic injections of equimolar concentrations of each drug. Instead it was necessary to give both drugs directly into the cerebroventricular system to by pass the blood brain barrier. Animals were anesthetized with sodium pentobarbital (50 mg/kg), implanted with microinjection guide cannulae aimed at the lateral ventricle and allowed to recover for two days before testing. To groups of six animals each were tested with Mox or CDP. Each animals received a injection of drug and 0.9% NaCl vehicle on two separate days. The order of injections was counterbalanced and separated by two days. Both Mox and CDP were prepared in 0.9% NaCl at a concentration of 1 mM. All injections were given in a volume of 2 ul over 10 secs in fully conscious, restrained animals. Sixty min later animals were tested in the plus-maze for a 3 min observation period and scored for behaviors as noted previously.
The elevated plus-maze was developed for screening anxiolytic and anxiogenic drug effects in the rat (Pellow et al., 1985). The method has been validated behaviorally, physiologically, and pharmacologically. The plus-maze consists of two open arms and two enclosed arms. […] Conversely, anxiogenic compounds like yohimbin or amphetamines reduce open arm entries and time spent in the open arms.
Male Wistar rats weighing 250-300 g were group housed in a normal 12:12 light-dark cycle with light on at 0800 hr and provided food and water ad libitum. The plus-maze consisted of two open arms, 50 cm long, 10 cm wide, with walls 40 cm high made of clear Plexiglas. The two closed arms had the same dimensions but included a roof. The Plexiglas for the closed arms was painted black. Each pair of arms was arranged opposite to each other to form the plus-maze. The maze was elevated to a height of 50 cm. Eighteen animals were tested in the plus-maze 90 min following the IP injection of 1.0 μg/kg CLAV, 50 or vehicle control in a volume of ca. 0.3 ml. The order of treatments was counter balanced with at least 48 hrs between injections. At the start of the experiment, the animal was placed at the end of one of the open arms. Over a five min observation period, animals were scored for the latency to enter the closed arm, time spent in the closed arm and the number of open arm entries following the first occupation of the closed arm. The study produced tables of repeated measures. The data between treatments were compared with a two-way, repeated measures ANOVA followed by Bonferroni post hoc tests. […]

rats = experiment: Morris water maze, spatial navigation; assay type: in vivo, rat
Description: The Morris water maze like the radial arm maze was developed to test spatial memory (Morris, 1984). The pool is divided into quadrants usually designated North, South, East and West. The water in the pool is made opaque with milk powder. Hidden just beneath the surface in one of the quadrants is a platform that serves as a escape route for rodents placed into the pool. An animal is placed some where in the pool from a variety of different start points and is timed for latency to find the platform, percent time spent in each quadrant, distance traveled and swimming speed. The animals has no visual or spatial cues in the pool and must rely on extra-maze cues, i.e., objects set up outside the pool that can be seen by the swimming animal. Through a series of trials a rat develops “place learning” or knowledge about the position of the platform based upon the extra-maze cues. The platform can be moved to a different quadrant each day combining spatial memory with working memory. This paradigm involves extinction of the prior memory and resolution of a new spatial problem.
The water maze consisted of a black plastic circular pool ca. 150 cm in diameter and 54 cm in height filled to a level of 35 cm with water made opaque with powdered milk. The pool was divided into four quadrants with a platform 10 cm in diameter submerged 2 cm below the surface in the northwest quadrant. The water was maintained at a temperature of 25° C. Around the pool were several visual cues. Above the pool was a video camera for tracking the movement of the experimental animal. The data collection was completely automated using the software developed by HVS Image (Hampton, UK). Before testing, rats were familiarized with the pool and platform placed in the northwest quadrant. Each day for 4 consecutive days, animals were placed into pool at random sites and given two min to find the platform. Animals were treated one hr before testing with 50 μg/kg Mox (n=11) or vehicle (n=10). Following these familiarization trials, animals were tested for spatial navigation. The first day of testing began with the platform in the expected northwest quadrant. All behavior was videotaped for a two min observation period. After testing the animal were dried off and placed back into their home cage. On each subsequent day the platform was moved to a new quadrant and the rat started at different positions. The rat was always placed into the pool facing the side wall. The start positions relative to the platform were different for each of the four trials; however, the platform was always in the same relative position in each quadrant. Twenty cm in from the side of the pool and in the left corner from the center facing out.
The Morris water maze was developed to test spatial memory (Morris, 1984). The pool is divided into quadrants usually designated North, South, East and West. The water in the pool is made opaque with milk powder. Hidden just beneath the surface in one of the quadrants is a platform that serves as a escape route for rodents placed into the pool. An animal is placed some where in the pool from a variety of different start points and is timed for latency to find the platform, percent time spent in each quadrant, distance traveled and swimming speed. The animals have no visual or spatial cues in the pool and must rely on extra-maze cues, i.e., objects set up outside the pool that can be seen by the swimming animal. Through a series of trials a rat develops “place learning” or knowledge about the position of the platform based upon the extra-maze cues. The platform can be moved to a different quadrant each day combining spatial memory with working memory. This paradigm involves extinction of the prior memory and resolution of a new spatial problem.
The water maze consisted of a black plastic circular pool ca. 150 cm in diameter and 54 cm in height filled to a level of 35 cm with water made opaque with powdered milk. […]

[1] = in vivo, cited from earlier work
[2] = daily IP for seven days: CLAV 100 ng/kg, CDP 10 mg/kg

## O=C(O)[C@H]1/C(=C/CO)O[C@@H]2CC(=O)N21 [CLAV, Clavulanic acid]
Male Wistar rats; CLAV 1.0 μg/kg IP, 90 min
  open arm entries: increased movement into the lighted open arms
  time spent in the open arm: significantly increased
Male Wistar rats; CLAV 1.0 μg/kg IP, 90 min, five min observation
  latency to enter the dark (time in starting open light position): longer
Male Wistar rats; [2]
  latency to enter the dark closed arms: significantly greater
  time spent exposed to light in the open arms: significantly greater
rats; CLAV 1.0 μg/kg
  percentage of time spent in each quadrant: no significant difference between treatments
  swim rate: no significant difference
rats; CLAV 1.0 μg/kg one hr before testing
  latency to find the platform, main effect: no main effect for drug treatment
rats; CLAV 1.0 μg/kg, Day 1
  path length to find the platform: much shorter distance
rats; CLAV 1.0 μg/kg, Day 2
  time spent in the correct (South) quadrant: over 50%
rats; CLAV 1.0 μg/kg, Days 1 and 4, trend towards significance
  latency to find the platform: shorter latencies
[1]
  blood-brain barrier transport / CNS penetrability: readily passes the blood-brain barrier
[1]; listed as Clavulanate
  blood-brain barrier transport / CNS penetrability: good blood brain barrier transport

## CO[C@@]1(NC(=O)C(C(=O)O)c2ccc(O)cc2)C(=O)N2C(C(=O)O)=C(CSc3nnnn3C)CO[C@@H]21 (stereo partly drawn) [Mox, 7-β-[2-carboxy-2-(4-hydroxyphenyl)acetamido]-7α-methoxy-3-[[(1-methyl-1H-tetrazol-5-yl)thio]methyl]-1-oxa-1-dethia-3-cephem-4-carboxylic acid]
Male Wistar rats; 50 μg/kg IP, 90 min
  number of open arm entries: significantly elevated
  time spent in the closed arm: significantly reduced
Male Wistar rats; 50 μg/kg IP, 90 min, five min observation
  latency to enter the closed arm: significantly increased
Male Wistar rats; 1 mM, 2 ul into lateral ventricle, 60 min
  time spent in the closed arm (dark): significantly (p<0.01) lower
Male Wistar rats; 1 mM, 2 ul into lateral ventricle, 60 min, 3 min observation
  latency to enter the closed arm: significantly (p<0.05) delayed
rats; Mox 50 μg/kg
  distance covered to reach the platform: not significantly different
  percentage of time spent in each quadrant: no significant difference between treatments
  swim speed: significantly greater swim speed
rats; Mox 50 μg/kg one hr before testing, days two, three and four
  latency to find the hidden platform: significantly shorter latencies
rats; Mox 50 μg/kg, Day 2
  swim speed relative to vehicle: almost twice the speed
[1]
  blood-brain barrier transport / CNS penetrability: greatest penetrability into the CNS
[1]; listed as Moxalactam
  blood-brain barrier transport / CNS penetrability: can penetrate the blood brain barrier
